# Legend:
# Format in all cases: biochemical
# Conditions in all cases: 20 nM
# PDE4D2 = PDE4D2 (Homo sapiens, UniProt Q08499); assay: PDE4 inhibitory activity assay (FAM-cAMP enzymatic reaction), PDE4D2
# Procedure, shortened: (§1)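 Human PDE4A1A, PDE4B1 or PDE4D2 preincubated with compound 15 min at room temperature, then FAM-cAMP substrate added; reaction 30 min at room temperature before stop solution and further 60 min. Fluorescence read on multilabel counter; IC50 fitted from inhibition rates.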
# PDE4A1A = target: T1, PDE4A1A (Homo sapiens, UniProt P27815); assay: PDE4 inhibitory activity assay (FAM-cAMP enzymatic reaction), PDE4A1A
# T1 construct: purchased BPS 60040
# T1 sequence (P27815 1-647 isoform P27815-4): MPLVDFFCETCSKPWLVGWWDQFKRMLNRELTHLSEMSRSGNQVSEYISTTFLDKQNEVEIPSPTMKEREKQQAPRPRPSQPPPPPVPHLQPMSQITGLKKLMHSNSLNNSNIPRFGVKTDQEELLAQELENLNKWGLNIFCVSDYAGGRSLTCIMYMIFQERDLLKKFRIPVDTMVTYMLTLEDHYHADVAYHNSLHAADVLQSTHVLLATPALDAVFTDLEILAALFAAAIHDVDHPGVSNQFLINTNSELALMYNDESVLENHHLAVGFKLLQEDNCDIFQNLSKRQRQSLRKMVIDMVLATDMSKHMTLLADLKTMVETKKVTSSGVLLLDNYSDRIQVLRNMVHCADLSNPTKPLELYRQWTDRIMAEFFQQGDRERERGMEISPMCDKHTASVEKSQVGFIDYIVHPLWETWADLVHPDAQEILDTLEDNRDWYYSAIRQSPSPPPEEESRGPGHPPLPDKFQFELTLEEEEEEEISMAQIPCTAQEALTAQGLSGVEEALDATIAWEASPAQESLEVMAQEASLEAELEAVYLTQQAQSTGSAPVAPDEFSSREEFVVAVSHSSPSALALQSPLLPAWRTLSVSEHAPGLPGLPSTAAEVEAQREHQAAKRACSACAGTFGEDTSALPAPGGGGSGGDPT
# Procedure, shortened: as §1
# PDE4B1 = target: T2, PDE4B1 (Homo sapiens, UniProt Q07343); assay: PDE4 inhibitory activity assay (FAM-cAMP enzymatic reaction), PDE4B1
# T2 construct: purchased BPS 60041
# T2 sequence (Q07343 whole entry): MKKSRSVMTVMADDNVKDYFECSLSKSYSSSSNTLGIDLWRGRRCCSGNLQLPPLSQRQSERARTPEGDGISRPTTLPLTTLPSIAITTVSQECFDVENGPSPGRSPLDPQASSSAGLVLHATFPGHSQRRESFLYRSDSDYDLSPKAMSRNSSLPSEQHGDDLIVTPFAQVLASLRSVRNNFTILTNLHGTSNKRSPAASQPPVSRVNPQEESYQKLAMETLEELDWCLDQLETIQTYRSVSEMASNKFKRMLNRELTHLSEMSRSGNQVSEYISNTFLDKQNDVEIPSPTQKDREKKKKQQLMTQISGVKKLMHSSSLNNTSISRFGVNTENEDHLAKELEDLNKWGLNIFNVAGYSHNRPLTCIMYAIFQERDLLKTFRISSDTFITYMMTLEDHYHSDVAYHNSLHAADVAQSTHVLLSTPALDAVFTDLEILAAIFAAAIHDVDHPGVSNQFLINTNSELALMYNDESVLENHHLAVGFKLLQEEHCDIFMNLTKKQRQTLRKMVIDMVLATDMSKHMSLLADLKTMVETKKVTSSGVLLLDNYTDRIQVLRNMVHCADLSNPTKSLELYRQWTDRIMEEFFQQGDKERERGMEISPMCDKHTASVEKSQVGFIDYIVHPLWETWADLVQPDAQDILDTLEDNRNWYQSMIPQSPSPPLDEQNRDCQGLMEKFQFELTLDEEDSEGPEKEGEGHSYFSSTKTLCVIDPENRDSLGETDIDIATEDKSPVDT
# Procedure, shortened: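 Each isoform is incubated with test compound for 15 min at room temperature before FAM-cAMP substrate starts a 30-min reaction.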
# PDE4D2, sequence (Q08499 303-809): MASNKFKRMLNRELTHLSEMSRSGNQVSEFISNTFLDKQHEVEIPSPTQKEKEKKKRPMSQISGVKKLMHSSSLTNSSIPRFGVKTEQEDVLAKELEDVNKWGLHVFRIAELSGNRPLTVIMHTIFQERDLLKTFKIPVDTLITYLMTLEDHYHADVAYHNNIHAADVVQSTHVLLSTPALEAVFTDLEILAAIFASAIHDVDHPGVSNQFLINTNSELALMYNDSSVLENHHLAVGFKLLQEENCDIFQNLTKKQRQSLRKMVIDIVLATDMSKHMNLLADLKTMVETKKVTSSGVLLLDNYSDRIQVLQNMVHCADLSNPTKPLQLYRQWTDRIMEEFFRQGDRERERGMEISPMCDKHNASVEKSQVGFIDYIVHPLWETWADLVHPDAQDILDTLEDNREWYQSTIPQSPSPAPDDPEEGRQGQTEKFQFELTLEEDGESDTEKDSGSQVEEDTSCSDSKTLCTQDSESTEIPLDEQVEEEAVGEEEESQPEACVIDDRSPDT
SMILES,PDE4 D2 inhibitory effect at 20 nM (PDE4D2),PDE4 A1 inhibitory effect at 20 nM (PDE4A1A),PDE4 B1 inhibitory effect at 20 nM (PDE4B1)
"CCOc1nc([C@@H](CS(C)(=O)=O)n2c(=O)n(C)c3c(C)c(-c4ccccc4F)cnc32)ccc1OC(F)F [Ex. 65, (S)-3-(1-(5-(difluoromethoxy)-6-ethoxypyridin-2-yl)-2-(methylsulfonyl)ethyl)-6-(2-fluorophenyl)-1,7-dimethyl-1H-imidazo[4,5-b]pyridin-2(3H)-one]",+,+,+
"CCOc1nc([C@@H](CS(C)(=O)=O)n2c(=O)n(C)c3cc(-c4ccccc4OC)cnc32)ccc1OC [Ex. 84, (S)-3-(1-(6-ethoxy-5-methoxypyridin-2-yl)-2-(methylsulfonyl)ethyl)-6-(2-methoxyphenyl)-1-methyl-1H-imidazo[4,5-b]pyridin-2(3H)-one]",+,+,+
"CCOc1nc([C@@H](CS(C)(=O)=O)n2c(=O)[nH]c3cc(-c4cccc(C)c4F)ccc32)ccc1OC [Ex. 177, (S)-5-(2-fluoro-3-methylphenyl)-1-(1-(6-ethoxy-5-methoxypyridin-2-yl)-2-(methylsulfonyl)ethyl)-1H-benzo[d]imidazol-2(3H)-one]",+,+,+
"CCOc1nc([C@@H](CS(C)(=O)=O)n2c(=O)[nH]c3cc(-c4cc(F)ccc4F)cnc32)ccc1OC [Ex. 92, (S)-6-(2,5-difluorophenyl)-3-(1-(6-ethoxy-5-methoxypyridin-2-yl)-2-(methylsulfonyl)ethyl)-1H-imidazo[4,5-b]pyridin-2(3H)-one]",+,+,+
"CCOc1nc([C@@H](CS(C)(=O)=O)n2c(=O)n(C)c3cc(-c4cccc(C)c4F)ccc32)ccc1OC [Ex. 178, (S)-5-(2-fluoro-3-methylphenyl)-1-(1-(6-ethoxy-5-methoxypyridin-2-yl)-2-(methylsulfonyl)ethyl)-3-methyl-1H-benzo[d]imidazol-2(3H)-one]",+,+,+
"CCOc1nc([C@@H](CS(C)(=O)=O)n2c(=O)[nH]c3cc(-c4ccccn4)ccc32)ccc1OC [Ex. 194, (S)-1-(1-(6-ethoxy-5-methoxypyridin-2-yl)-2-(methylsulfonyl)ethyl)-5-(pyridin-2-yl)-1H-benzo[d]imidazol-2(3H)-one]",+,+,+
"CCOc1nc([C@@H](CS(C)(=O)=O)n2c(=O)n(C)c3cc(-c4ccccc4)cnc32)ccc1OC [Ex. 77, (S)-3-(1-(6-ethoxy-5-methoxypyridin-2-yl)-2-(methylsulfonyl)ethyl)-6-phenyl-1-methyl-1H-imidazo[4,5-b]pyridin-2(3H)-one]",+,+,+
"CCOc1nc([C@@H](CS(C)(=O)=O)n2c(=O)[nH]c3c(C)c(-c4ccc(F)cc4F)cnc32)ccc1OC [Ex. 28, (S)-6-(2,4-difluorophenyl)-3-(1-(6-ethoxy-5-methoxypyridin-2-yl)-2-(methylsulfonyl)ethyl)-7-methyl-1H-imidazo[4,5-b]pyridin-2(3H)-one]",+,+,+
"CCOc1nc([C@@H](CS(C)(=O)=O)n2c(=O)n(CC)c3c(C)c(-c4ccc(F)cc4)cnc32)ccc1OC [Ex. 48, (S)-3-(1-(6-ethoxy-5-methoxypyridin-2-yl)-2-(methylsulfonyl)ethyl)-1-ethyl-6-(4-fluorophenyl)-7-methyl-1H-imidazo[4,5-b]pyridin-2(3H)-one]",+,+,+
"CCOc1nc([C@@H](CS(C)(=O)=O)N2C(=O)c3csc(NC(=O)C4CC4)c3C2=O)ccc1OC [Ex. 227, (S)—N-(5-(1-(6-ethoxy-5-methoxypyridin-2-yl)-2-(methylsulfonyl)ethyl)-4,6-dioxo-5,6-dihydro-4H-thieno[3,4-c]pyrrol-1-yl)cyclopropanecarboxamide]",+,+,+
"CCOc1nc([C@@H](CS(C)(=O)=O)n2c(=O)n(C)c3cc(-c4cccc(F)c4F)ccc32)ccc1OC [Ex. 153, (S)-5-(2,3-difluorophenyl)-1-(1-(6-ethoxy-5-methoxypyridin-2-yl)-2-(methylsulfonyl)ethyl)-3-methyl-1H-benzo[d]imidazol-2(3H)-one]",+,+,+
"CCOc1nc([C@@H](CS(C)(=O)=O)n2c(=O)n(CC(F)F)c3c(C)c(-c4ccccc4F)cnc32)ccc1OC(C)C [Ex. 69, (S)-1-(2,2-difluoroethyl)-3-(1-(6-ethoxy-5-isopropoxypyridin-2-yl)-2-(methylsulfonyl)ethyl)-6-(2-fluorophenyl)-7-methyl-1H-imidazo[4,5-b]pyridin-2(3H)-one]",+,+,+
"CCOc1nc([C@@H](CS(C)(=O)=O)n2c(=O)n(C)c3cc(-c4cc(F)ccc4F)cnc32)ccc1OC [Ex. 93, (S)-6-(2,5-difluorophenyl)-3-(1-(6-ethoxy-5-methoxypyridin-2-yl)-2-(methylsulfonyl)ethyl)-1-methyl-1H-imidazo[4,5-b]pyridin-2(3H)-one]",+,+,+
"CCOc1nc([C@@H](CS(C)(=O)=O)n2c(=O)[nH]c3c(C)c(-c4c(F)cccc4F)cnc32)ccc1OC [Ex. 23, (S)-6-(2,6-difluorophenyl)-3-(1-(6-ethoxy-5-methoxypyridin-2-yl)-2-(methylsulfonyl)ethyl)-7-methyl-1H-imidazo[4,5-b]pyridin-2(3H)-one]",+,+,+
"CCOc1nc([C@@H](CS(C)(=O)=O)n2c(=O)[nH]c3c(C)c(-c4ccccc4C#N)cnc32)ccc1OC [Ex. 15, (S)-2-(3-(1-(6-ethoxy-5-methoxypyridin-2-yl)-2-(methylsulfonyl)ethyl)-7-methyl-2-oxo-2,3-dihydro-1H-imidazo[4,5-b]pyridin-6-yl)benzonitrile]",−,−,−
"CCOc1nc([C@@H](CS(C)(=O)=O)n2c(=O)n(C)c3cc(-c4cc(F)c(F)cc4F)ccc32)ccc1OC [Ex. 159, (S)-5-(2,4,5-trifluorophenyl)-1-(1-(6-ethoxy-5-methoxypyridin-2-yl)-2-(methylsulfonyl)ethyl)-3-methyl-1H-benzo[d]imidazol-2(3H)-one]",+,+,+
"CCOc1nc([C@H](CS(C)(=O)=O)N2Cc3cccc(NC(=O)CC)c3C2=O)ccc1OC [Ex. 220, (R)—N-(2-(1-(6-ethoxy-5-methoxypyridin-2-yl)-2-(methylsulfonyl)ethyl)-3-oxoisoindolin-4-yl)propionamide]",−,−,−
"CCOc1nc([C@@H](CS(C)(=O)=O)n2c(=O)[nH]c3cc(C(=O)OCC(F)(F)F)ccc32)ccc1OC [Ex. 214, (S)-2,2,2-trifluoroethyl 1-(1-(6-ethoxy-5-methoxypyridin-2-yl)-2-(methylsulfonyl)ethyl)-2-oxo-2,3-dihydro-1H-benzo[d]imidazole-5-carboxylate]",+,+,+
"CCOc1nc([C@@H](CS(C)(=O)=O)n2c(=O)n(C)c3cc(-c4cccc(F)c4F)cnc32)ccc1OC [Ex. 91, (S)-6-(2,3-difluorophenyl)-3-(1-(6-ethoxy-5-methoxypyridin-2-yl)-2-(methylsulfonyl)ethyl)-1-methyl-1H-imidazo[45-b]pyridin-2(3H)-one]",+,+,+
"CCOc1nc([C@@H](CS(C)(=O)=O)n2c(=O)[nH]c3cc(-c4cc(F)ccc4C)cnc32)ccc1OC [Ex. 109, (S)-6-(5-fluoro-2-methylphenyl)-3-(1-(6-ethoxy-5-methoxypyridin-2-yl)-2-(methylsulfonyl)ethyl)-1H-imidazo[4,5-b]pyridin-2(3H)-one]",+,+,+

# From US20230141101A1, “PDE4 INHIBITOR COMPOUND AND MEDICAL USE THEREOF” (Suzhou Longbotai Pharmaceuticals Co., Ltd., priority 2020, published 2023)
